Test results taken from US20200048267A1, “OGA INHIBITOR COMPOUNDS” (Janssen Pharmaceutica NV, priority 2017, published 2020).

Experiments:
[1] = molecular target: T1, recombinant human Meningioma Expressed Antigen 5 (MGEA5), also referred to as O-GlcNAcase (OGA) (Homo sapiens, UniProt O60502); test: OGA biochemical assay (inhibition of FM-GlcNAc hydrolysis, fluorescence); details: for Emax: read-out: ENZYMATIC Emax (%); for IC50: read-out: ENZYMATIC hOGA, pIC50 (converted)
T1 construct: Full length OGA enzyme was purchased at OriGene (cat # TP322411); purchased OriGene TP322411
T1 sequence (O60502 1-916): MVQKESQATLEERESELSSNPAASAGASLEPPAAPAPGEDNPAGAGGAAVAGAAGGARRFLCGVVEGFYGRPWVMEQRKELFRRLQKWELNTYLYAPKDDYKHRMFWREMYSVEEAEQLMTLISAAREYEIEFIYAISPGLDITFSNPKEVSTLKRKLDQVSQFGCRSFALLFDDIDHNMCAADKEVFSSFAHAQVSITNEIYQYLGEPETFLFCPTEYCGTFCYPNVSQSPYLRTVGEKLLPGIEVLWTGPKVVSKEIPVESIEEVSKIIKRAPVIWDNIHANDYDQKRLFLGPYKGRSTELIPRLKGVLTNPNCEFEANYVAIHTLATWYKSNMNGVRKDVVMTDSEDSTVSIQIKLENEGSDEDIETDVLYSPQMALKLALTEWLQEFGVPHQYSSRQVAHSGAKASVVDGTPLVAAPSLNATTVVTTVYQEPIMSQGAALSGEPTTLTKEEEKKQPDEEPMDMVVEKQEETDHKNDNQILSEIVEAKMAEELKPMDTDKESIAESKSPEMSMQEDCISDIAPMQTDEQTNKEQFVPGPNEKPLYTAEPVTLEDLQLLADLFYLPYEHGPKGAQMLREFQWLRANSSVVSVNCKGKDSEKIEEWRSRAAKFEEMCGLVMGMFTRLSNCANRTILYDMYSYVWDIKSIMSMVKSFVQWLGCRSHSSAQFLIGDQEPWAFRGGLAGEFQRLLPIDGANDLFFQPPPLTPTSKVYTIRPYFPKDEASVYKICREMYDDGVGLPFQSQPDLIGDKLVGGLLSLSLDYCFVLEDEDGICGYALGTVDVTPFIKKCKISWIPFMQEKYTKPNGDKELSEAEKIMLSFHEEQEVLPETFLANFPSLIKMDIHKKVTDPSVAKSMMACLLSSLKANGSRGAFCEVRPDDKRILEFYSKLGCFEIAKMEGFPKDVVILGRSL
From the text: The assay is based on the inhibition of the hydrolysis of fluorescein mono-β-D-N-Acetyl-Glucosamine (FM-GlcNAc) (Mariappa et al. 2015, Biochem J 470:255) by the recombinant human Meningioma Expressed Antigen 5 (MGEA5), also referred to as O-GlcNAcase (OGA). The hydrolysis FM-GlcNAc (Marker Gene technologies, cat # M1485) results in the formation of B-D-N-glucosamineacetate and fluorescein. The fluorescence of the latter can be measured at excitation wavelength 485 nm and emission wavelength 538 nm. An increase in enzyme activity results in an increase in fluorescence signal. Full length OGA enzyme was purchased at OriGene (cat # TP322411). The enzyme was stored in 25 mM Tris.HCl, pH 7.3, 100 mM glycine, 10% glycerol at −20° C. Thiamet G and GlcNAcStatin were tested as reference compounds (Yuzwa et al. 2008 Nature Chemical Biology 4:483; Yuzwa et al. 2012 Nature Chemical Biology 8:393). The assay was performed in 200 mM Citrate/phosphate buffer supplemented with 0.005% Tween-20. 35.6 g Na2HPO4 2 H2O (Sigma, # C0759) were dissolved in 1 L water to obtain a 200 mM solution. 19.2 g citric acid (Merck, # 1.06580) was dissolved in 1 L water to obtain a 100 mM solution. pH of the sodium phosphate solution was adjusted with the citric acid solution to 7.2. The buffer to stop the reaction consists of a 500 mM Carbonate buffer, pH 11.0. 734 mg FM-GlcNAc were dissolved in 5.48 mL DMSO to obtain a 250 mM solution and was stored at −20° C. OGA was used at 2 nM concentration and FM-GlcNAc at a 100 uM final concentration. Dilutions were prepared in assay buffer.
50 nl of a compound dissolved in DMSO was dispensed on Black Proxiplate™ 384 Plus Assay plates (Perkin Elmer, #6008269) and 3 μl fl-OGA enzyme mix added subsequently. Plates were pre-incubated for 60 min at room temperature and then 2 μl FM-GlcNAc substrate mix added. […] Plates were briefly centrifuged for 1 min at 1000rpm and incubate at room temperature for 6 h. To stop the reaction 5 μl STOP buffer were added and plates centrifuge again 1 min at 1000 rpm.
Fluorescence was quantified in the Thermo Scientific Fluoroskan Ascent or the PerkinElmer EnVision with excitation wavelength 485 nm and emission wavelength 538 nm.
For analysis a best-fit curve is fitted by a minimum sum of squares method. From this an IC50 value and Hill coefficient was obtained. High control (no inhibitor) and low control (saturating concentrations of standard inhibitor) were used to define the minimum and maximum values.

OGA = molecular target: T2, OGA (Homo sapiens, UniProt O60502); test: OGA cellular assay (ICC detection of O-GlcNAcylated proteins in HEK293 cells inducible for P301L mutant human Tau); assay type: cell-based; details: 6 hours incubation; for EC50: read-out: CELLULAR hOGA, pEC50 (converted)
T2 construct: HEK293 cells inducible for P301L mutant human Tau (isoform 2N4R) were established at Janssen; endogenous in cells; host or cells: HEK293 cells inducible for P301L mutant human Tau (2N4R)
T2 sequence (O60502 1-916): T1 sequence (O60502 1-916)
Experimental: HEK293 cells inducible for P301L mutant human Tau (isoform 2N4R) were established at Janssen. Thiamet-G was used for both plate validation (high control) and as reference compound (reference EC50 assay validation). OGA inhibition is evaluated through the immunocytochemical (ICC) detection of O-GlcNAcylated proteins by the use of a monoclonal antibody (CTD110.6; Cell Signaling, #9875) detecting O-GlcNAcylated residues as previously described (Dorfmueller et al. 2010 Chemistry & biology, 17:1250). Inhibition of OGA will result in an increase of O-GlcNAcylated protein levels resulting in an increased signal in the experiment. Cell nuclei are stained with Hoechst to give a cell culture quality control and a rough estimate of immediate compounds toxicity, if any. ICC pictures are imaged with a Perkin Elmer Opera Phenix plate microscope and quantified with the provided software Perkin Elmer Harmony 4.1.
Cells were propagated in DMEM high Glucose (Sigma, #D5796) following standard procedures. 2 days before the cell assay cells are split, counted and seeded in Poly-D-Lysine (PDL) coated 96-wells (Greiner, #655946) plate at a cell density of 12,000 cells per cm^2 (4,000 cells per well) in 100 µl of Assay Medium (Low Glucose medium is used to reduce basal levels of GlcNAcylation) (Park et al. 2014 The Journal of biological chemistry 289:13519). At the day of compound test medium from assay plates was removed and replenished with 90 μl of fresh Assay Medium. 10 μl of compounds at a 10 fold final concentration were added to the wells. Plates were centrifuged shortly before incubation in the cell incubator for 6 hours. DMSO concentration was set to 0.2%. Medium is discarded by applying vacuum. For staining of cells medium was removed and cells washed once with 100 μl D-PBS (Sigma, #D8537). From next step onwards unless other stated assay volume was always 50 μl and incubation was performed without agitation and at room temperature. Cells were fixed in 50 μl of a 4% paraformaldehyde (PFA, Alpha aesar, # 043368) PBS solution for 15 minutes at room temperature. […] Before analysis samples were washed 2 times manually for 5 minutes in ICC base buffer.
Imaging is performed using Perkin Elmer Phenix Opera using a water 20× objective and recording 9 fields per well. Intensity readout at 488 nm is used as a measure of O-GlcNAcylation level of total proteins in wells. To assess potential toxicity of compounds nuclei were counted using the Hoechst staining. IC50-values are calculated using parametric non-linear regression model fitting. As a maximum inhibition Thiamet G at a 200 uM concentration is present on each plate. In addition, a concentration response of Thiamet G is calculated on each plate.

Molecule Cc1cc(N2CCC3(CCN(Cc4ccc5nccnc5c4)C3)C2)nc(C)n1 (stereo not drawn) [Product 22] has an Emax [1] of 96%, an IC50 [1] of 275 nM and an Emax (OGA) of 12%. It also gave an EC50 (OGA) greater than 1000 nM.

With CNc1cncc(N2CCC3(CCN(Cc4cnc(NC(C)=O)s4)C3)C2)n1 (stereo not drawn) [Product 26] the Emax [1] was 101%, the IC50 [1] was 61.7 nM and the Emax (OGA) was 25.1%. It also gave an EC50 (OGA) greater than 1000 nM.

Work on CC(=O)Nc1ncc(CN2CCC3(CCN(c4cc(C)nc(C(F)(F)F)c4)C3)C2)s1 (stereo not drawn) [Product 28] yielded an Emax [1] of 101%, an IC50 [1] of 19.1 nM and an Emax (OGA) of 73.4%. The EC50 (OGA) was 380 nM.

Work on Cc1cc(N2CCC3(CCN(C(C)c4ccc5sc(C)nc5c4)C3)C2)cc(C)n1 (stereo not drawn) [Product 29] yielded an Emax [1] of 101%, an IC50 [1] of 18.2 nM and an Emax (OGA) of 74.1%. For the same molecule, the EC50 (OGA) was 380 nM.

Molecule Cc1cc(N2CCC3(CCN(Cc4nc5ccccc5[nH]4)C3)C2)nc(C)n1 (stereo not drawn) [Product 30] has an Emax [1] of 100%, an IC50 [1] of 324 nM and an Emax (OGA) of 7.7%. The EC50 (OGA) was greater than 1000 nM.

Molecule Cc1cc(N2CCC3(CCN(Cc4ccc5sc(C)nc5c4)C3)C2)nc(C)n1 (stereo not drawn) [Product 32] has an Emax [1] of 102%, an IC50 [1] of 51.3 nM and an Emax (OGA) of 26.3%. The EC50 (OGA) was greater than 1000 nM.

With Cc1cc(N2CCC3(CCN(Cc4ccc5sc(C)nc5c4)C3)C2)cc(C(F)(F)F)n1 (stereo not drawn) [Product 33] the Emax [1] was 96.2%, the IC50 [1] was 69.2 nM and the Emax (OGA) was 6.9%. It also gave an EC50 (OGA) greater than 1000 nM.

For CC(=O)Nc1ncc(CN2CCC3(CCN(c4cc(C)ncc4C(F)(F)F)C3)C2)s1 (stereo not drawn) [Product 34], the “ENZYMATIC hOGA; pIC50” value [1] was 7.44, the Emax [1] was 102% and the Emax (OGA) was 85.3%. It also gave an EC50 (OGA) of 148 nM.

Molecule Cc1cc(N2CCC3(CCN(C(C)c4ccc5scnc5c4)C3)C2)cc(C)n1 (stereo not drawn) [Product 36] has an Emax [1] of 101%, an IC50 [1] of 24 nM and an Emax (OGA) of 87.9%. For the same molecule, the EC50 (OGA) was 200 nM.

For Cc1cc(N2CCC3(CCN(C(C)c4cnc5c(c4)OCCO5)C3)C2)cc(C)n1 (stereo not drawn) [Product 37], the Emax [1] was 99%, the IC50 [1] was 182 nM and the Emax (OGA) was 20.4%. The EC50 (OGA) was greater than 1000 nM.

For Cc1cc(N2CCC3(CCN(C(C)c4ccc5c(c4)OCCO5)C3)C2)cc(C)n1 (stereo not drawn) [Product 38], the Emax [1] was 101%, the IC50 [1] was 30.2 nM and the Emax (OGA) was 68.9%. It also gave an EC50 (OGA) of 389 nM.

In the case of CC(=O)Nc1ncc(CN2CCC3(CCN(c4cc(C)ncc4C)C3)C2)s1 (stereo not drawn) [Product 39], the “ENZYMATIC hOGA; pIC50” value [1] is reported as 7.87, the Emax [1] is reported as 101% and the Emax (OGA) is reported as 87.3%. The EC50 (OGA) was 77.6 nM.
